Literature values as cited in patent publication US20170101624A1, “METHODS OF ENHANCING T-CELL LONGEVITY AND USES THEREOF” (Washington University, priority 2015, published 2017).

Test system: Drp1 (Dnm1)
Settings: as disclosed in Cassidy-Stone et al. Developmental Cell 2008

In the case of `COc1cc(-n2c(=S)[nH]c3ccccc3c2=O)c(Cl)cc1Cl` [compound A], the “efficacy relative to Mdivi-1 (inhibition of mitochondrial fission)” value is given as “full efficacy”.
